Assay results reported in patent US9593305B2, “Differentiation of pluripotent stem cells” (Janssen Biotech, Inc., priority 2008, dated 2017).

Test system: H1 human embryonic stem cells
Assay: Secondary screening with EGF/FGF4 in the absence of activin A (Example 4)
Type: cell-based
Conditions: for Cell Number: % of positive control / Cell Number: Average Total Cell Number / Sox17 Expression: % of positive control / Sox17 Expression: Average Total Intensity: 2.5 μM compound + 50 ng/ml EGF + 50 ng/ml FGF4, Wnt3a, no activin A, four days
Method: Clusters of H1 human embryonic stem cells were grown on reduced growth factor […]™ (Invitrogen; Cat #356231)-coated tissue culture plastic. Cells were passaged using collagenase (Invitrogen; Cat #Cat #17104-019) treatment and gentle scraping, washed to remove residual enzyme, and plated with even dispersal at a ratio of 1:1 (surface area) on reduced growth factor […]™-coated 96-well black plates (Packard ViewPlates; PerkinElmer; Cat #6005182) using volumes of 100 μl/well. Cells were allowed to attach as clusters and then recover log phase growth over a 1 to 3 day period, feeding daily with MEF conditioned medium supplemented with 8 ng/ml bFGF (R&D Systems; Cat #233-FB). Plates were maintained at 37° C., 5% CO2 in a humidified box throughout the duration of assay.
Stock concentrations for EGF (R&D Systems; Cat #236-EG) and FGF4 (R&D Systems; Cat #235-F4) were 250 ng/ml, each solubilized in PBS with 0.1% BSA (Sigma; Cat #A7888). Compounds were available as 5 mM stocks in 96-well plate format, solubilized in 100% DMSO (Sigma; Cat #D2650) and stored at −80° C. The compounds were further diluted to an intermediate concentration of 0.2 mM in 50 mM HEPES (Invitrogen; Cat #15630-080), 20% DMSO and stored at 4° C. All growth factors and inhibitors were prepared in a deep well, 96-well polypropylene plate, diluted to 5× intermediate stocks in DMEM:F12 base medium at the beginning of assay and stored at 4° C.
A secondary screening assay was conducted, testing in triplicate and feeding on alternate days over the four-day assay timeframe. Assays were initiated by aspirating culture medium from each well followed by three washes in PBS to remove residual growth factors and serum. Test volumes of 80 μl per well were added back containing DMEM:F12 base medium (Invitrogen; Cat #11330-032) supplemented with 0.625% FCS (HyClone; Cat #SH30070.03), 25 ng/ml Wnt3a (R&D Systems), and 3.125 μM compound plus 20 μl 5× stock of growth factors to yield a final concentration of 0.5% FCS, 20 ng/ml Wnt3a, and 2.5 μM compound plus 50 ng/ml EGF and 50 ng/ml FGF4 in the assay. Positive control wells (100 μl/well) contained the same base medium supplemented with 0.5% FCS, 20 ng/ml Wnt3a and 100 ng/ml activin A. Negative control wells (100 μl/well) contained the same base medium with 0.5% FCS and 20 ng/ml Wnt3a, omitting activin A.
On day 3, wells were aspirated and fed with 80 μl DMEM:F12 base medium supplemented with 2.5% FCS (HyClone) and 3.125 μM compound plus […] 5× stock of growth factors per well to yield a final concentration of 2% FCS and 2.5 μM compound (omitting Wnt3a) plus 50 ng/ml EGF and FGF4 in the assay. Positive control wells (100 μl/well) contained the same base medium supplemented with 2% FCS and 100 ng/ml activin A, omitting Wnt3a. Negative control wells (100 μl/well) contained the same base medium with 2% FCS, omitting both activin A and Wnt3a.
At the conclusion of four-days of culture, assay plates were washed twice with PBS, fixed with 4% paraformaldehyde (Alexis Biochemical; Cat #ALX-350-011) at room temperature for 20 minutes, then washed three times with PBS and permeabilized with 0.5% Triton X-100 (Sigma; Cat #T8760-2) for 20 minutes at room temperature. Cells were washed again three times with PBS and blocked with 4% chicken serum (Invitrogen; Cat 16110082) in PBS for 30 minutes at room temperature. Primary antibody (goat anti-human SOX17; R&D Systems; cat #AF1924) was diluted 1:100 in 4% chicken serum and added to each well for one hour at room temperature. Alexa Fluor 488 conjugated secondary antibody (chicken anti-goat IgG; Molecular Probes; Cat #AZ1467) was diluted 1:200 in PBS and added to each sample well after washing three times with PBS. To counterstain nuclei, 4 μg/ml Hoechst 33342 (Invitrogen; Cat #H3570) was added for ten minutes at room temperature. Plates were washed once with PBS and left in 100 μl/well PBS for imaging. […]

[1] = Table 3B most potent compounds, with EGF + FGF4, no activin A

SMILES	Cell Number: % of positive control	Cell Number: Average Total Cell Number	Sox17 Expression: % of positive control	Sox17 Expression: Average Total Intensity	Cell Number, % of positive control [1]	Sox17 Intensity % of positive control [1]
O=C1CCN2CCN(CC2)Cc2cc(Cl)cc(c2)Nc2ncnc(n2)-c2cncc(c2)CCCN1 [Compound 34, 5-Chloro-1,8,10,12,16,22,26,32-octaazapentacyclo[24.2.2.1˜3.7˜0.1˜9,13˜0.1˜14.18˜]tritriaconta-3(33), 4,6,9(32), 10,12,14(31), 15,17-nonaen-23-one]	100.87 % of positive control	18891	17.55 % of positive control	3.26E+07	–	–
CCN1CCCc2cccc(c2)-c2ncnc(n2)Nc2cccc(c2)CCNC(=O)C1 [Compound 29, 18-Ethyl-3,5,7,15,18,28-hexaazatetracyclo[20.3.1.1˜2,6˜0.1˜8,12˜]octacosa-1(26), 2(28), 3,5,8(27), 9,11,22,24-nonaen-16-one]	107.97 % of positive control	20221	15.27 % of positive control	2.83E+07	–	–
O=C1NCCCc2cncc(c2)-c2ncnc(n2)Nc2cc(Cl)cc(c2)CN2CCCC1C2 (centres unmarked) [Compound 37, 10-Chloro-3,5,7,14,20,26,31-heptaazapentacyclo[22.3.1.1˜2,6˜0.1˜8,12˜0.1˜14,18˜]hentriaconta-1(28), 2(31), 3,5,8(30), 9,11,24,26-nonaen-19-one]	83.32 % of positive control	15605	14.37 % of positive control	2.67E+07	–	–
CCN1CC(=O)NCCCc2cncc(c2)-c2ncnc(n2)Nc2cc(Cl)cc(c2)C1 [Compound 35, 10-Chloro-14-ethyl-3,5,7,14,17,23,27-heptaazatetracyclo[19.3.1.1˜2,6˜0.1˜8,12]Theptacosa-1(25), 2(27), 3,5,8(26), 9,11,21,23-nonaen-16-one]	–	–	–	–	127.20 % of positive control	13.69 % of positive control
CN1CCC(=O)NCCCNc2ncccc2-c2ncnc(n2)Nc2cccc(c2)C1 [Compound 39, 9-Methyl-2,3,4,5,7,8,9,10-octahydro-16H-17,21-(azeno)-11,15-(metheno)pyrido[3,2-g][1,3,5,9,13,17]hexaazacyclotricosin-6(1H)-one]	91.28 % of positive control	17095	15.19 % of positive control	2.82E+07	–	–
O=C1NCCCc2cncc(c2)-c2ncnc(n2)Nc2cccc(c2)CN2CCC1CC2 [Compound 22, 1,8,10,12,16,22,30-Heptaazapentacyclo[22.2.2.1-3,7˜0.1˜9,13˜1-14,18˜]hentriaconta-3(31), 4,6,9(30), 10,12,14(29), 15,17-nonaen-23-one]	97.91 % of positive control	18336	20.05 % of positive control	3.72E+07	–	–
O=C1NCCCc2cncc(c2)-c2ncnc(n2)Nc2cccc(c2)CN2CCCC1C2 (centres unmarked) [Compound 17, 3,5,7,14,20,26,31-Heptaazapentacyclo[22.3.1.1-2,6˜1˜8,12˜1˜14,18˜]hentriaconta-1(28), 2(31), 3,5,8(30), 9,11,24,26-nonaen-19-one]	114.51 % of positive control	21445	18.48 % of positive control	3.43E+07	–	–
